The test system of the assay is human LINE-1. The assay can be described thus: Human LINE-1 retrotransposition assay (HeLa cell-based dual-luciferase reporter, plasmid pYX017). The conditions noted are these: HeLa cells; for IC50: 72 h incubation. Here is the method: Islatravir and other compounds were tested for inhibition of retrotransposition activity of human LINE-1 in HeLa cells according to the following procedure.
HeLa cervical cancer cells were cultivated at 37° C. in a humidified 5% CO2 incubator in Dulbecco's Modified Eagle's Medium (DMEM)—high glucose, with 4500 mg/L glucose, L-glutamine, sodium pyruvate and sodium bicarbonate (Sigma), supplemented with 10% of heat inactivated fetal bovine serum (Thermo Fisher).
Assays were performed using reporter plasmid pYX017 as described (Xie, et al., 2011) with several modifications. The reporter assay was performed in 96-well white optical bottom plates. HeLa cells were seeded in wells 24 h prior to transfection and compound treatment so that cells were approximately 30% confluent on the day of transfection. Different cell plating densities were tested and a density of 2×10^3 cells was determined to be optimal.
Compounds were resuspended in DMSO. Serial dilutions (1:3) were prepared in DMSO. Medium containing different concentrations of the compounds were prepared by adding 2 μl of the compound dilution to 1 ml of the culture medium. The final concentration of DMSO in the medium was 0.2%.
FuGENE® HD transfection reagent (Promega, E2311, Lot 382574 and Lot 397842) was used to transfect the plasmids into the cells. The transfection reagent: DNA mixture was prepared in OpiMEM (Thermo Fisher) according to manufacturer's instructions. Different ratios of transfection reagent to DNA were tested and a ratio of 3:1 was determined to be optimal. Culture medium was removed from the cells and discarded. The transfection reagent: DNA mixture (5 μl) was mixed with the compound containing medium (100 μl/well) and this was added onto the cells of each well. Cells were incubated at 37° C./5% CO2 for different incubation time. A 72 h incubation time was determined to be optimal.
Luciferase reporter activity was quantified with the Dual-Luciferase® Reporter Assay System (Promega) according to manufacturer's instructions for multiwell plates except that cells were lysed directly on the multiwell plate with 30 μl of the passive lysis buffer (PLB) for 20 min at room temperature, with gentle shaking to ensure complete cell lysis.
Firefly and Renilla luciferase signals were measured using a SpectraMax i3x Multi-Mode Microplate Reader. Integration times of 100 ms and 10 ms were used to measure the Firefly and Renilla signals respectively. Relative L1 activity is calculated as Firefly/Renilla *1000 or Firefly/Renilla *10,000. Dose response inhibition data were fit to a four parameter logistic equation using non-linear regression (using Graphpad Prism 8), to determine IC50 values for each inhibitor.

The mark [1] stands for this setting: Homo sapiens, Firefly/Renilla luciferase, experiment 3, read-out: Human LINE-1 IC50, Exp. 3.
Where [2] appears, read: Homo sapiens, Firefly/Renilla luciferase, experiment 4, read-out: Human LINE-1 IC50, Exp. 4.
[3] abbreviates: Homo sapiens, average of n = 2-4 experiments, read-out: Human LINE-1 IC50, Average.
Setting [4] is: Homo sapiens, compounds of Table 1 (Table 4), read-out: Human LINE-1 IC50.
Where [5] appears, read: Homo sapiens, Firefly/Renilla luciferase, experiment 1, read-out: Human LINE-1 IC50, Exp. 1.
Setting [6] is: Homo sapiens, Firefly/Renilla luciferase, experiment 2, read-out: Human LINE-1 IC50, Exp. 2.

Counter-ions that a name gives are not always drawn. Like-named read-outs stand apart in the source and are kept apart here.

What is called IC50 is the concentration that gives 50% inhibition.

For the compound `Cc1cn([C@H]2C=C[C@@H](CO)O2)c(=O)[nH]c1=O` [Stavudine], the IC50 under setting [1] amounted to 780 nM and the concentration for half-maximal inhibition (IC50) under setting [2] worked out at 710 nM.
Taken in the same sequence, the figures for `Nc1nc(NC2CC2)c2ncn([C@H]3C=C[C@@H](CO)C3)c2n1` [Abacavir sulfate] were 16800 nM and 17400 nM.
Taken in the same sequence, the figures for `CC(C)OC(=O)OCOP(=O)(CO[C@H](C)Cn1cnc2c(N)ncnc21)OCOC(=O)OC(C)C` [Tenofovir disoproxil] were 140 nM and 260 nM.
For the compound `Nc1ccn([C@H]2CO[C@@H](CO)S2)c(=O)n1` [Apricitabine], the IC50 under setting [1] came out at 7690 nM, the IC50 under setting [2] came to 5220 nM and the IC50 under setting [3] was 6460 nM.
Consider `C=C[C@]1(CO)O[C@@H](n2ccc(N)nc2=O)C[C@@H]1O` [compound 18], for which the IC50 under setting [4] came out at 8 nM.
Turning to `CC[C@]1(CO)O[C@@H](n2cc(C)c(=O)[nH]c2=O)C[C@@H]1O` [compound 19], the concentration for half-maximal inhibition (IC50) under setting [4] was found to be 2000 nM.
As to `C#C[C@]1(CO)O[C@@H](n2cnc3c(N)nc(F)nc32)C[C@@H]1O` [Islatravir, 2′-deoxy-4′-ethynyl-2-fluoroadenosine], the IC50 under setting [3] was found to be 1.3 nM.
For `Nc1nc(=O)n([C@@H]2CS[C@H](CO)O2)cc1F` [Emtricitabine], the half-maximal inhibitory concentration (IC50) is, setting by setting: under setting [1], 1390 nM; under setting [2], 1300 nM.
Consider `Nc1ccn([C@@H]2CS[C@H](CO)O2)c(=O)n1` [Lamivudine], for which the concentration for half-maximal inhibition (IC50) reads like this: under setting [5], 790 nM; under setting [6], 870 nM; under setting [1], 570 nM; under setting [2], 340 nM.
On to `C#C[C@]1(CO)O[C@@H](n2cc(C)c(N)nc2=O)C[C@@H]1O` [compound 6], for which, under setting [4], the half-inhibitory concentration (IC50) came out at 18600 nM.
On to `CC[C@]1(CO)O[C@@H](n2cnc3c(O)nc(N)nc32)C[C@@H]1O` [compound 20], for which the IC50 under setting [4] was determined as 3 nM.
On to `C[C@H](Cn1cnc2c(N)ncnc21)OCP(=O)(O)O` [Tenofovir], for which the IC50 came to 3310 nM (Firefly/Renilla luciferase, experiment 3, read-out: Human LINE-1 IC50, Exp. 3) and 2230 nM (Firefly/Renilla luciferase, experiment 4, read-out: Human LINE-1 IC50, Exp. 4).
Take `Nc1nc(=O)n([C@@H]2C=C[C@H](CO)O2)cc1F` [Elvucitabine]: the IC50 reads like this: under setting [5], 90 nM; under setting [1], 80 nM; under setting [2], 110 nM; under setting [3], 90 nM.
For the compound `C#C[C@@]1(CO)C=C[C@H](n2cc(C)c(=O)[nH]c2=O)O1` [Censavudine, 4′-ethynylstavudine], the “human LINE-1 inhibitor activity compared to the other reverse transcriptase inhibitory drugs tested” value (comparison in words) was “unexpectedly better human LINE-1 inhibitor activity”. Besides, the IC50 by setting is: under setting [6], 90 nM; under setting [1], 80 nM; under setting [3], 70 nM.

Values taken from patent publication US20240173346A1, “LINE-1 INHIBITORS TO TREAT CNS AND SYSTEMIC DISEASES” (TRANSPOSON THERAPEUTICS, INC., priority 2021, published 2024).
